In assay [1] the test system is OVCAR3 cells. Briefly: Detection of cell proliferation activity by CCK8 method (OVCAR3). It counts as cell-based. The gist of the method:
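OVCAR3 tumor cells in log-phase growth were trypsinized, counted and plated at 180 μL per well in 96-well plates, with PBS in the outer wells. The following day, compounds were added in 9 concentrations (1:5 dilutions starting at 10 μM final) in triplicate alongside DMSO controls. After 96 h, medium was swapped for 100 μL medium containing 10% CCK8. Plates were incubated 2 h at 37° C and read at 450 nm. Background-corrected inhibition relative to DMSO was fitted by non-linear regression in GraphPad Prism 7.0 to obtain IC50.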
(Tetrazolium assays rely on reduction of a dye to a coloured formazan, in cell work by metabolically active cells.)

For assay [2], the system named is OVCAR3 cells. As to the kind of experiment: Detection of OVCAR3 cell proliferation activity by CTG method. It is filed as cell-based. As to conditions: CellTiter-Glo, 7 days. A digest of the protocol: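 OVCAR3 cells (2000/well) were exposed for 7 days to compound at 10 μM to 0.026 nM, 5-fold steps, in duplicate. Viability was read as CellTiter-Glo luminescence. A plate read on the day of compound addition served as the Max value for IC50 derivation.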
(ATP-based viability assays read luminescence as a measure of living cells.)

In the next assay the target is hERG potassium channel (Homo sapiens (Human), UniProt Q12809). Briefly: hERG whole-cell patch clamp (Qpatch) in HEK293 cells. It is filed as cell-based. As to conditions: top concentration 30 μM. Here is the method:
HEK293 cells were cultured in a DMEM medium containing 10% fetal bovine serum and 0.8 mg/mL G418 at 37° C. with 5% CO2. The cells were digested by TrypLE™ Express and then centrifuged. The cell density was adjusted to 2×10^6 cells/ml. The cells were then gently mixed for 15-20 min using a shaker equilibrated at room temperature, and subjected to patch clamping on a machine. The medium of the prepared cells was replaced with extracellular fluid. The intracellular fluid and the extracellular fluid were taken from the fluid pool, and added to the intracellular fluid pool and the cell and test substance pool of the QPlate chip, respectively. The voltage stimulation of the whole-cell hERG potassium current was recorded by the whole-cell patch clamp, and the experimental data was collected and stored by Qpatch. The test compound was 3-fold diluted starting from 30 μM to obtain 6 concentration points, each for two administrations over a period of at least 5 min. The current detected in compound-free extracellular fluid for each cell served as its own control group, and the detection was repeated at least twice independently using two cells per concentration. All electrophysiological experiments were performed at […].
For data analysis, the current after the action of each drug concentration and the current of the blank control were standardize
and then the inhibition rate corresponding to each drug concentration was calculated
The mean and standard error were calculated for each concentration, and the half maximal inhibitory concentration of each compound was calculated:
The dose-dependent effect was subjected to non-linear fitting using the above equation, where Y represents the inhibition rate, C represents the concentration of the test substance, IC50 is the half maximal inhibitory concentration, and HillSlope represents the Hill coefficient. Curve fitting and calculation of IC50 were performed using the Graphpad software.
For orientation: The hERG channel carries a current that helps repolarise heart muscle cells.

For assay [3], the system named is Human colon cancer HT-29 cells. As to the kind of experiment: Pharmacodynamic experiment in mice, subcutaneous HT-29 tumor. It is filed as in vivo. As to conditions: 20 mpk BID intragastric, after 16 days of administration, HT-29 subcutaneous tumor in mice. Here is the method:
Human colon cancer HT-29 cells were cultured in monolayer in vitro under the following conditions: DMEM medium containing 10% fetal bovine serum and 1% penicillin and streptomycin, at 37° C. with 5% CO2. The cells were digested with trypsin three times a week for passaging. When the saturation degree of the cells was 80%-90%, the cells were collected, counted, and inoculated, 0.1 mL (1×10^6 cells) of HT-29 cells were subcutaneously inoculated on the tight back of each mouse. On day 11 after inoculation of the cells, the mean tumor volume reached 325 mm^3. The mice were randomly grouped for administration (the animals were divided into an administration group and a control group, with 6 animals in each group). The day of grouping was defined as d0, and intragastric administration was started on d1. The administration was performed twice daily at an administration volume of 10 mL/kg. Vehicle control was adminstered to the control group. The tumor volume was measured 2-3 times per week, and meanwhile, the mice were weighed and the data were recorded; daily observations were made to record the body surface signs of the mice. After the experiment was completed, the tumors were removed, weighed, and photographed for recording.
Calculation formula for tumor volume: […]

Where [4] appears, read: Homo sapiens, OVCAR-3, CCK8, 96 h.

Our source for the IC50 and TGI values is patent US20250382298A1, “NITROGEN-CONTAINING COMPOUND AND USE THEREOF” (SUZHOU GENHOUSE BIO CO., LTD., priority 2022, published 2025).

Chain of hERG potassium channel (Q12809 whole entry): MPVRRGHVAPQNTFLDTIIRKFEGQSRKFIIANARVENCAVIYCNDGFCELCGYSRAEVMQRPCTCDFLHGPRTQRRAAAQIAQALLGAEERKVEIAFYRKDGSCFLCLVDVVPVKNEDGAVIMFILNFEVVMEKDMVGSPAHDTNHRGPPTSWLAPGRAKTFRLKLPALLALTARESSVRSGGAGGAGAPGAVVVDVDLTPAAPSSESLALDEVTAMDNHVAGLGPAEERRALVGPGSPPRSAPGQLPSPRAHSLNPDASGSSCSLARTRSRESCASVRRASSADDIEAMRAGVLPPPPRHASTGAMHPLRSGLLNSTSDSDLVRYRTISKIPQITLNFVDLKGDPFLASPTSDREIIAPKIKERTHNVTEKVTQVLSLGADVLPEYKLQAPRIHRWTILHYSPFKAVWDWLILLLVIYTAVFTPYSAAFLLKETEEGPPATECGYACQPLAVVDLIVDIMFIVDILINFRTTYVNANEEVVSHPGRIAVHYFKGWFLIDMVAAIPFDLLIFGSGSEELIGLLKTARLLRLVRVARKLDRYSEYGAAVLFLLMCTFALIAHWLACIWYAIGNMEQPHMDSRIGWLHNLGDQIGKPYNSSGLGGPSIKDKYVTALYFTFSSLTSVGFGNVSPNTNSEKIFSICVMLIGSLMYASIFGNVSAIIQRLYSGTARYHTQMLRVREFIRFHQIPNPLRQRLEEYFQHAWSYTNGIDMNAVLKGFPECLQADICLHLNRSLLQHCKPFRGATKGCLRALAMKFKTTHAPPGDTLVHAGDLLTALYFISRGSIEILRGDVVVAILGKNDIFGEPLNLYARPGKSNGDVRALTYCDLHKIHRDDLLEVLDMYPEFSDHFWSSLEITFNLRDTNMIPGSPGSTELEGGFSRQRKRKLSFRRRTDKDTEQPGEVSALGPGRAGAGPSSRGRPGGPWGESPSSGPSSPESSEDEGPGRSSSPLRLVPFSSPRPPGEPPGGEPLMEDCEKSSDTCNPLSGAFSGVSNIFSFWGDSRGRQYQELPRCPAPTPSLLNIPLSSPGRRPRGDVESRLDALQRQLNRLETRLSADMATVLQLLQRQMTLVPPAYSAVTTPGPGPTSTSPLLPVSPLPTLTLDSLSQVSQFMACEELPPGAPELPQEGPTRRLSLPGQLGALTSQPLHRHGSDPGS

One may read the IC50 as the midpoint of a concentration-inhibition curve. For the compound `Cc1cc(NC(=O)c2ccc(NS(=O)(=O)CCO)cc2N2CC3CCC(C3)C2)nc(N2CCC(F)(F)CC2)n1` [Compound 3], the IC50 with OVCAR3 cells [1] (setting [4]) came to 0.145 µM; with OVCAR3 cells [2] (Homo sapiens, OVCAR-3, 168 h), 0.085 µM.

In the case of `O=C(Nc1cc2ccccc2c(N2CCC(F)(F)CC2)n1)c1ccc(NS(=O)(=O)CCO)cc1N1CCC2(CC1)CC2` [Compound 6], the 50% inhibitory concentration (IC50) was > 30 µM against hERG potassium channel; 0.057 µM in the assay with OVCAR3 cells [1] (setting [4]); 0.118 µM in the assay on OVCAR3 cells [2] (Homo sapiens, OVCAR-3, 168 h).

On to `O=C(Nc1cn2ccnc2c(N2CCC(F)(F)CC2)n1)c1ccc(NS(=O)(=O)CCO)cc1N1CCC2(CC1)CC2` [Compound 8], for which the 50% inhibitory concentration (IC50) was > 30 µM against hERG potassium channel; 0.0072 µM in the assay on OVCAR3 cells [1] (setting [4]); 0.0058 µM in the assay on OVCAR3 cells [2] (Homo sapiens, OVCAR-3, 168 h).

`CS(=O)(=O)Nc1ccc(C(=O)Nc2cn3ccnc3c(N3CCC(F)(F)CC3)n2)c(N2CCC3(CC2)CC3)c1` [Compound 10] displayed an IC50 with OVCAR3 cells [2] (Homo sapiens, OVCAR-3, 168 h) of 0.016 µM.

On to `O=C(Nc1cc2c(c(N3CCC(F)(F)CC3)n1)COC2)c1ccc(NS(=O)(=O)CCO)cc1N1CCC2(CC1)CC2` [Compound 14], for which, in the assay with OVCAR3 cells [2] (Homo sapiens, OVCAR-3, 168 h), 0.0056 µM corresponded to half-maximal inhibition (IC50).

In the assay on OVCAR3 cells [2] (Homo sapiens, OVCAR-3, 168 h), `O=C(Nc1cc2ccsc2c(N2CCC(F)(F)CC2)n1)c1ccc(NS(=O)(=O)CCO)cc1N1CCC2(CC1)CC2` [Compound 15] showed an IC50 of 0.024 µM. This IC50 is about 4.3-fold higher than that of the compound before.

`O=C(Nc1cn2ccnc2c(N2CCC(F)(F)CC2)n1)c1ccc(NS(=O)(=O)CCO)cc1N1CC2CCC(C2)C1` [Compound 17] had an IC50 in the assay with OVCAR3 cells [2] (Homo sapiens, OVCAR-3, 168 h) of 0.0063 µM.

For `CS(=O)(=O)Nc1ccc(C(=O)Nc2cn3ccnc3c(N3CCC(F)(F)CC3)n2)c(N2CC3CCC(C3)C2)c1` [Compound 19], the TGI in assay [3] was 111.82%. Besides, the IC50 on hERG potassium channel was > 30 µM; in the assay with OVCAR3 cells [1] (setting [4]) it was 0.0231 µM.

On to `O=C(Nc1cc2cccnc2c(N2CCC(F)(F)CC2)n1)c1ccc(NS(=O)(=O)CCO)cc1N1CCC2(CC1)CC2` [Compound 21], for which the values for the half-inhibitory concentration (IC50) against hERG potassium channel and with OVCAR3 cells [1] (setting [4]) were > 30 µM and 0.0034 µM, respectively.

With `O=C(Nc1cc2cc[nH]c2c(N2CCC(F)(F)CC2)n1)c1ccc(NS(=O)(=O)CCO)cc1N1CCC2(CC1)CC2` [Compound 22], the IC50 with OVCAR3 cells [1] (setting [4]) is 0.0034 µM; with OVCAR3 cells [2] (Homo sapiens, OVCAR-3, 168 h), 0.0112 µM.

Regarding `O=C(Nc1cn2ncnc2c(N2CCC(F)(F)CC2)n1)c1ccc(NS(=O)(=O)CCO)cc1N1CCC2(CC1)CC2` [Compound 23], the half-maximal inhibitory concentration (IC50) in the assay on OVCAR3 cells [1] (setting [4]) turned out to be 0.0057 µM; in the assay with OVCAR3 cells [2] (Homo sapiens, OVCAR-3, 168 h), 0.0064 µM.

With `O=C(Nc1cn2cnnc2c(N2CCC(F)(F)CC2)n1)c1ccc(NS(=O)(=O)CCO)cc1N1CCC2(CC1)CC2` [Compound 24], the IC50 in the assay with OVCAR3 cells [1] (CCK8, 96 h) amounted to 0.0123 µM; with OVCAR3 cells [2] it was 0.0178 µM.

For the compound `O=C(Nc1cn2c(F)cnc2c(N2CCC(F)(F)CC2)n1)c1ccc(NS(=O)(=O)CCO)cc1N1CCC2(CC1)CC2` [Compound 34], the TGI in assay [3] is listed as 105.10%. In the assay with OVCAR3 cells [1] (setting [4]), this compound had an IC50 of 0.0106 µM.

On to `CS(=O)(=O)Nc1ccc(C(=O)Nc2cc3cc[nH]c3c(N3CCC(F)(F)CC3)n2)c(N2CCC3(CC2)CC3)c1` [Compound 47], for which the TGI in assay [3] came to 108.84%. The compound further registered an IC50 in the assay with OVCAR3 cells [1] (setting [4]) of 0.008 µM.
